# Reference: US11780893B2, “Kv1.3 blockers” (Zealand Pharma A/S, priority 2019, dated 2023)
# Read-outs that look alike come from different tables or passages of the source. Bridge positions count the residues as written; N and C are the ends. Square brackets hold non-standard residues; d marks the D form. Peptide text beside a SMILES is read from it. Nle = CCCC[C@H](N)C(=O)O
# Columns and labels:
# [1] = target: Rat whole blood (Rattus norvegicus, UniProt P15384)
# [2] = target: T1, Kv1.1 (Homo sapiens, UniProt Q09470); assay: cell-based; conditions: for IC50: CHO cells, whole-cell patch clamp, read-out: Potency IC50 (nM) Kv1.1; for Selectivity Kv1.1/Kv1.3: ratio IC50[Kv1.1]/IC50[Kv1.3]
# T1 construct: expressed in transfected cells; host or cells: Chinese Hamster Ovary (CHO)
# [3] = target: T2, human Kv1.3 voltage-gated K+ channel (Homo sapiens, UniProt P22001); assay: cell-based; conditions: inhibition of thallium flux, CHO-DUKX cells with human Kv1.3; read-out: IC50
# T2 construct: host or cells: CHO-DUKX
# [4] = target: T3, Kv1.2 (Homo sapiens, UniProt P16389); assay: cell-based; conditions: for IC50: CHO cells, whole-cell patch clamp, read-out: Potency IC50 (nM) Kv1.2
# T3 construct: expressed in transfected cells; host or cells: Chinese Hamster Ovary (CHO)
# [5] = target: T4, Kv1.6 (Homo sapiens, UniProt P17658); assay: cell-based; conditions: for IC50: CHO cells, whole-cell patch clamp, read-out: Potency IC50 (nM) Kv1.6; for Selectivity Kv1.6/Kv1.3: ratio IC50[Kv1.6]/IC50[Kv1.3]
# T4 construct: expressed in transfected cells; host or cells: Chinese Hamster Ovary (CHO)
# [6] = test system: Human peripheral blood mononuclear cells (PBMCs); assay: IL-2 release from anti-CD3 stimulated human PBMCs (Example 4b); type: cell-based; conditions: geometric mean, at least 6 replicates, read-out: anti-CD3 PBMC/IL-2 IC50
# Experimental: Human peripheral blood mononuclear cells (PBMCs) were used to assess the effects of Kv1.3 blockers on T-cell activation as determined by IL-2 release after stimulation with anti-CD3.
# (§1) Human PBMCs were obtained from Precision for Medicine (Frederick, Md.). Cells from 5 donors were used. Plate-bound anti-CD3 was used to stimulate bulk T cells in the PBMC preparations. Briefly, 96-well plates were coated with anti-CD3 antibody for app. 16 hours at 5° C., using 50 μl of a 1 μg/ml anti-CD3 solution diluted in PBS. Thereafter the plates were washed twice.
# Kv1.3 blockers were subsequently diluted in medium (RPMI 1640 with Glutamax-I containing, 10% v/v Fetal Bovine Serum, 1% v/v penicillin-streptomycin Solution) and added in a volume of 50 μl. The compounds indicated in Table 4b were used at concentrations ranging from […] to 1000 nM (half log dilutions, starting concentrations varying).
# (§2) Finally, 50.000 PBMCs in the same medium were added to each well in a volume of 50 μl, giving a final volume of 100 μl per well. The plates were incubated for 20-24 hours in a 37° C./5% CO2 incubator. After centrifugation of the plates, 25 μl supernatant was transferred to IL-2 detection plates (MSD Human IL-2 Tissue Culture Kit, cat #K151AHB-2) and IL-2 was measures as described by the manufacturer (Meso Scale Discovery, Rockville, Md., USA).
# Results are shown in Table 4b as geometric mean of IC50 values obtained from anti-CD3 stimulated human PBMC assays. All values derive from at least 6 replicates.
# [7] = target: T5, Kv1.3 (Homo sapiens, UniProt P22001); assay: cell-based; conditions: CHO cells, whole-cell patch clamp; read-out: Potency IC50 (nM) Kv1.3
# T5 construct: expressed in transfected cells; host or cells: Chinese Hamster Ovary (CHO)
# [8] = test system: Human peripheral blood mononuclear cells (PBMCs); assay: IL-2 release from anti-CD3 stimulated human PBMCs (Example 4a); type: cell-based; conditions: geometric mean, at least 4 replicates, read-out: anti-CD3 PBMC/IL-2 IC50
# Experimental: Human peripheral blood mononuclear cells (PBMCs) were used to assess the effects of Kv1.3 blockers on T-cell activation as determined by IL-2 (cytokine) release after stimulation with anti-CD3.
# as §1, with “2 hrs” for “app. 16 hours”, “37°” for “5°”, “μL” for “μl”, “0.5 μg/mL” for “1 μg/ml”, “1×PBS.” for “PBS.”
# as §2, with “1×10^5” for “50.000”, “PBMCs” for “PBMCs in the same medium”, “100 μL,” for “50 μl,”, “200 μL” for “100 μl”
# Results are shown in Table 4a as geometric mean of IC50 values obtained from anti-CD3 stimulated human PBMC assays. All values derive from at least 4 replicates.
# [9] = test system: delayed-type hypersensitivity (DTH) ear swelling response; type: in vivo, rat; conditions: CsA 10 mg/kg per os, +/- SD
# T4 sequence (P17658 whole entry): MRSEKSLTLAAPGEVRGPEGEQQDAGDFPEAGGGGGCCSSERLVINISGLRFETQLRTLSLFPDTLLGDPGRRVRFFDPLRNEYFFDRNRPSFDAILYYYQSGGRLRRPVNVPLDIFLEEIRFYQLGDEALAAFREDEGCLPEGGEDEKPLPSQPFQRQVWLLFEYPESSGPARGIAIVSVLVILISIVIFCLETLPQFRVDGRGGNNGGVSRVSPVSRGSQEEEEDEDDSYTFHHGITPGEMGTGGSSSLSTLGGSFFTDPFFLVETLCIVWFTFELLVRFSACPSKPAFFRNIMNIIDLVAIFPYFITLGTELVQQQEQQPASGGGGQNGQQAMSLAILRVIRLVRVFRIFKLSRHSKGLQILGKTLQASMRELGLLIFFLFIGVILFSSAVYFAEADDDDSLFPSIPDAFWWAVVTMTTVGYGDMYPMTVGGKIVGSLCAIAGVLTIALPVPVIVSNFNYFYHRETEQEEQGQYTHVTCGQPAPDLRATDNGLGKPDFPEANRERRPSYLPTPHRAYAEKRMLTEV
# Sequence of Rat whole blood (P15384 whole entry): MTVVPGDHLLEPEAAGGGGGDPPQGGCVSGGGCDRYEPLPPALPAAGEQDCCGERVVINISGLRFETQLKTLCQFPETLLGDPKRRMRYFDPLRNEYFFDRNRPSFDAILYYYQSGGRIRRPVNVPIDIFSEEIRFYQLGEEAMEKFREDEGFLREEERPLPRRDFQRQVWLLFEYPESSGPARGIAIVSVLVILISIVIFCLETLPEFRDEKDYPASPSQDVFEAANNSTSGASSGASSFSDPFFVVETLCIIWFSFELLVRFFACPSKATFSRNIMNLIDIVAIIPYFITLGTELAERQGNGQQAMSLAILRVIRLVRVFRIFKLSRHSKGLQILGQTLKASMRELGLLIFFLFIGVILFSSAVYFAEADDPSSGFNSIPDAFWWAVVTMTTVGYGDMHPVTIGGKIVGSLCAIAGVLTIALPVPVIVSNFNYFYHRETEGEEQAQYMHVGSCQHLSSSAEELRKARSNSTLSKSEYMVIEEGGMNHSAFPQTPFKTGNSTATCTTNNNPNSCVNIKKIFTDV
# T3 sequence (P16389 whole entry): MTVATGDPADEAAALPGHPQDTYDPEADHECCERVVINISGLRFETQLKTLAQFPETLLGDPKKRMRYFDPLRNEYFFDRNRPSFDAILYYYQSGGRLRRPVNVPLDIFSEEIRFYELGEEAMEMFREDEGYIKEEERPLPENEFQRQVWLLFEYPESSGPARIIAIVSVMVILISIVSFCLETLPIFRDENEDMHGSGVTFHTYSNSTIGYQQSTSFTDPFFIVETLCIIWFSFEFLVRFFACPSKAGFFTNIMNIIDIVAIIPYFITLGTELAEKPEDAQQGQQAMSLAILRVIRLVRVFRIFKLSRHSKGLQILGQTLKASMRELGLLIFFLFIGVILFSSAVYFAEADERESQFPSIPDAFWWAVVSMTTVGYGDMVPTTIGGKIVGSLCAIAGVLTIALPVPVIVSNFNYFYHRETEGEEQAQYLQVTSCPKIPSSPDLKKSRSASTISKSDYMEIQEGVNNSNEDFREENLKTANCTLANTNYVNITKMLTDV
# T1 sequence (Q09470 whole entry): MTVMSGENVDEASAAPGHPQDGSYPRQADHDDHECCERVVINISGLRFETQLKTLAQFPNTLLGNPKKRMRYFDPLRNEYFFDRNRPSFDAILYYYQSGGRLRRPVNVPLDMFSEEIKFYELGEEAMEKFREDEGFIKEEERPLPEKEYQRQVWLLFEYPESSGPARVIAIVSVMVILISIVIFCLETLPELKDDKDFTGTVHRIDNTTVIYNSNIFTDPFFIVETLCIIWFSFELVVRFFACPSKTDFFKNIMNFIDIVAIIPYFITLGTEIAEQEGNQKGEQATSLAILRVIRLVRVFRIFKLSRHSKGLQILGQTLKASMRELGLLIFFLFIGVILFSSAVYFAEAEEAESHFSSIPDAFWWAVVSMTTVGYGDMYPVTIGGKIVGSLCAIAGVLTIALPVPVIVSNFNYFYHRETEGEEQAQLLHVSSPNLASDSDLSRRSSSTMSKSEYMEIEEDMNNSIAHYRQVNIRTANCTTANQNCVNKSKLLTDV
# T5 sequence (P22001 whole entry): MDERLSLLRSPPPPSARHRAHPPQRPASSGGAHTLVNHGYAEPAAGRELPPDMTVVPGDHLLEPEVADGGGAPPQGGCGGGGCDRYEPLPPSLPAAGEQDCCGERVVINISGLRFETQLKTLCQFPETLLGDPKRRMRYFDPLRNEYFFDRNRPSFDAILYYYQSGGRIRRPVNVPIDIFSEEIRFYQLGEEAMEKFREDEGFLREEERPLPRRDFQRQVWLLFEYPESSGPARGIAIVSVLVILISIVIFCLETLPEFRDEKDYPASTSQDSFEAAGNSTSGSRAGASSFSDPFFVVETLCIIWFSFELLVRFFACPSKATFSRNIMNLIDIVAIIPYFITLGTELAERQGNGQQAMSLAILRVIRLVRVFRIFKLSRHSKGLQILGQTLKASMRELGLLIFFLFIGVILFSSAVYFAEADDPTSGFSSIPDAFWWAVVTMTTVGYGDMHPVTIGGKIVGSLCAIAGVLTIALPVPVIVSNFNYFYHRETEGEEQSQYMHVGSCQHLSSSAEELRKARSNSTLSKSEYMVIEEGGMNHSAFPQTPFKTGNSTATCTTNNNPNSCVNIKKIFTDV
# T2 sequence (P22001 whole entry): as above
Molecule,IC50 [1] [nM],IC50 [2] [nM],Selectivity Kv1.1/Kv1.3 [2],IC50 [3] [nM],IC50 [4] [nM],IC50 [5] [nM],Selectivity Kv1.6/Kv1.3 [5],IC50 [6] [nM],IC50 [7] [nM],IC50 [8] [nM],"% inhibition of ear thickness (AUC of Δ ear thickness 0-48 hours) ([9]; Exp #1, Kv1.3 blocker 70 nmol/kg SC 24 hrs prior to KLH challenge)","% inhibition of ear thickness (AUC of Δ ear thickness 0-48 hours) ([9]; Exp #2, Kv1.3 blocker 70 nmol/kg SC 24 hrs prior to KLH challenge)","% inhibition of ear thickness (AUC of Δ ear thickness 0-48 hours) ([9]; Exp #3, Kv1.3 blocker 50 nmol/kg SC 24 hrs prior to KLH challenge)","% inhibition of ear thickness (AUC of Δ ear thickness 0-48 hours) ([9]; Exp #4, Kv1.3 blocker 100 nmol/kg SC 24 hrs prior to KLH challenge)",Selectivity Kv1.2/Kv1.3 ([4]; ratio IC50[Kv1.2]/IC50[Kv1.3])
"CC[C@H](C)[C@@H]1NC(=O)[C@H](C)NC(=O)[C@H](CCCCN)NC(=O)[C@H](CC(C)C)NC(=O)[C@@H]2CSSC[C@@H](C(=O)N[C@@H](Cc3ccc(O)cc3)C(=O)N3CCC[C@H]3C(=O)N[C@@H](CCCNC(=N)N)C(=O)O)NC(=O)[C@H](CCCCN)NC(=O)[C@@H]3CSSC[C@H](NC(=O)[C@H](CCC(=O)O)NC(=O)[C@H](C(C)C)NC(=O)[C@H](CO)NC(=O)[C@H](C)NC(=O)[C@H](CO)NC(=O)[C@@H](NC(=O)[C@H](CCCNC(=N)N)NC(=O)[C@H](CCSC)NC(=O)[C@H](CC(=O)O)NC(=O)[C@H](CCSC)NC(=O)[C@@H](N)CCC(N)=O)CSSC[C@H](NC(=O)[C@H](CCCCN)NC(=O)CNC(=O)[C@H](Cc4ccccc4)NC(=O)[C@H]([C@@H](C)CC)NC(=O)[C@H](CO)NC(=O)CNC1=O)C(=O)N[C@@H](CCSC)C(=O)N[C@@H](CC(N)=O)C(=O)N[C@@H](CCCCN)C(=O)N[C@@H](CCCCN)C(=O)N3)C(=O)N[C@@H](CCCCN)C(=O)N[C@@H](CCC(N)=O)C(=O)N[C@@H](CCCCN)C(=O)N2 [Compound 1] (H-QMDMRCSASVECKQKCLKAIGSIFGKCMNKKCKCYPR-OH; disulfide 6-27, 12-32, 16-34)",≤ 1,> 3000,>7900,0.24,518,> 3000,>7900,0.09,0.38,,,,,,
"CC[C@H](C)[C@@H]1NC(=O)[C@H](C)NC(=O)[C@H](CCCCN)NC(=O)[C@H](CC(C)C)NC(=O)[C@@H]2CSSC[C@@H](C(=O)N[C@@H](Cc3ccc(O)cc3)C(=O)N3CCC[C@H]3C(=O)N[C@@H](CCCNC(=N)N)C(N)=O)NC(=O)[C@H](CCCCN)NC(=O)[C@@H]3CSSC[C@H](NC(=O)[C@H](CCC(=O)O)NC(=O)[C@H](C(C)C)NC(=O)[C@H](CO)NC(=O)[C@H](C)NC(=O)[C@H](CO)NC(=O)[C@@H](NC(=O)[C@H](CCCNC(=N)N)NC(=O)[C@H](CCSC)NC(=O)[C@H](CC(=O)O)NC(=O)[C@H](CCSC)NC(=O)[C@@H](N)CC(N)=O)CSSC[C@H](NC(=O)[C@H](CCCCN)NC(=O)CNC(=O)[C@H](Cc4ccccc4)NC(=O)[C@H]([C@@H](C)CC)NC(=O)[C@H](CO)NC(=O)CNC1=O)C(=O)N[C@@H](CCSC)C(=O)N[C@@H](CC(N)=O)C(=O)N[C@@H](CCCCN)C(=O)N[C@@H](CCCCN)C(=O)N3)C(=O)N[C@@H](CCCCN)C(=O)N[C@@H](C(C)C)C(=O)N[C@@H](CCCCN)C(=O)N2 [Compound 17] (H-NMDMRCSASVECKVKCLKAIGSIFGKCMNKKCKCYPR-NH2; disulfide 6-27, 12-32, 16-34)",≤ 1,> 3000,>7200,0.14,66,912,,,0.42,0.4,,,,,
"CCCC[C@H](NC(=O)[C@@H]1CCCN1)C(=O)N[C@@H](CC(=O)O)C(=O)N[C@@H](CCCC)C(=O)N[C@@H](CCCNC(=N)N)C(=O)N[C@H]1CSSC[C@@H]2NC(=O)[C@H](CCCCN)NC(=O)CNC(=O)[C@H](Cc3ccccc3)NC(=O)[C@H]([C@@H](C)CC)NC(=O)[C@H](CO)NC(=O)CNC(=O)[C@H]([C@@H](C)CC)NC(=O)[C@H](C)NC(=O)[C@H](CCCCN)NC(=O)[C@H](CC(C)C)NC(=O)[C@@H]3CSSC[C@@H](C(=O)N[C@@H](Cc4ccc(O)cc4)C(=O)N4CCC[C@H]4C(=O)N[C@@H](CCCNC(=N)N)C(N)=O)NC(=O)[C@H](CCCCN)NC(=O)[C@H](CSSC[C@H](NC(=O)[C@H](CCC(=O)O)NC(=O)[C@H](C(C)C)NC(=O)[C@H](CO)NC(=O)[C@H](C)NC(=O)[C@H](CO)NC1=O)C(=O)N[C@@H](CCCCN)C(=O)N[C@@H](CCC(N)=O)C(=O)N[C@@H](CCCCN)C(=O)N3)NC(=O)[C@H](CCCCN)NC(=O)[C@H](CCCCN)NC(=O)[C@H](CC(N)=O)NC(=O)[C@H](CCCC)NC2=O [Compound 41] (H-P[Nle]D[Nle]RCSASVECKQKCLKAIGSIFGKC[Nle]NKKCKCYPR-NH2; disulfide 6-27, 12-32, 16-34)",≤ 1,> 3000,>17100,0.15,939,> 3000,>17100,0.03,0.18,,46.9 (+/−10.9) %,27.7 (+/−11.5) %,22.2 (+/−11.1) %,41.9 (+/−12.5) %,
"CCCC[C@@H]1NC(=O)[C@@H]2CSSC[C@H](NC(=O)[C@H](CCCNC(=N)N)NC(=O)[C@H](CCCC)NC(=O)[C@H](CC(=O)O)NC(=O)[C@H](CCCC)NC(=O)[C@@H](N)CC(N)=O)C(=O)N[C@@H](CO)C(=O)N[C@@H](C)C(=O)N[C@@H](CO)C(=O)N[C@@H](C(C)C)C(=O)N[C@@H](CCC(=O)O)C(=O)N[C@H]3CSSC[C@H](NC(=O)[C@H](CCCCN)NC(=O)[C@H](CCCCN)NC(=O)[C@H](CC(N)=O)NC1=O)C(=O)N[C@@H](CCCCN)C(=O)N[C@H](C(=O)N[C@@H](Cc1ccc(O)cc1)C(=O)N1CCC[C@H]1C(=O)N[C@@H](CCCNC(=N)N)C(N)=O)CSSC[C@H](NC(=O)[C@H](CO)NC(=O)[C@H](CCC(N)=O)NC(=O)[C@H](CCCCN)NC3=O)C(=O)N[C@@H](CC(C)C)C(=O)N[C@@H](CCCCN)C(=O)N[C@@H](C)C(=O)N[C@@H]([C@@H](C)CC)C(=O)NCC(=O)N[C@@H](CO)C(=O)N[C@@H]([C@@H](C)CC)C(=O)N[C@@H](Cc1ccccc1)C(=O)NCC(=O)N[C@@H](CCCCN)C(=O)N2 [Compound 48] (H-N[Nle]D[Nle]RCSASVECKQSCLKAIGSIFGKC[Nle]NKKCKCYPR-NH2; disulfide 6-27, 12-32, 16-34)",≤ 1,> 3000,>8200,0.14,> 3000,> 3000,>8200,0.07,0.37,,,,,,>8200
"H-NMDMRCSASVECKQKCLKAIGSIFGKCMNKKCKCYPRRRTA-NH2 (disulfide 6-27, 12-32, 16-34) [Compound 23]",≤ 1,626,,0.055,28,215,,0.06,0.15,,,,,,
